Consider 14 molecules from patent US20220160686A1, “MACROCYCLIC AZOLOPYRIDINE DERIVATIVES AS EED AND PRC2 MODULATORS” (Fulcrum Therapeutics, Inc., priority 2019, published 2022).

Experiment [1] deals with T1, biotinylated AVI-tagged EED (76-441) (Homo sapiens, UniProt O75530).
T1 construct: GST (N, cleaved yes); made in house; host or cells: E. coli BL21(DE3), co-expressed with pGro7
Put plainly: EED binding SPR assay. The settings on record: 1:1 binding model; read-out: KD, equilibrium dissociation constant as measured by surface plasmon resonance (SPR). On the procedure:
Biotinylated AVI-tagged EED was produced using standard molecular biology techniques. A pGEX plasmid with a GST-preScission-cleavage-site-AVI-EED(76-441) sequence was placed into E. coli BL21(DE3) cells and co-expressed with pGro7. The E. coli were grown in shaker flasks in LB with ampicillin at 37° C. at 110 rpm to an OD600=0.7. At this time the temperature was lowered to 15° C. and IPTG was added to 0.3 mM. The cells were allowed to express overnight. Cells were then harvested.
For purification, the E. coli cell pellet was lysed into a buffer of 50 mM Tris pH 8.0, 500 mM NaCl, 5% glycerol and 5 mM DTT. The lysate was loaded onto a GSTrap FF column from GE Healthcare. After washing, the bound protein was eluted with 50 mM Tris pH 8.0, 500 mM NaCl, 5% glycerol, 5 mM DTT and 15 mM GSH. The collected fractions were combined and incubated with PreScission enzyme overnight at 4° C. The cleaved protein was then passed through a GSTrap FF column in a buffer of 50 mM Tris pH 8.0, 500 mM NaCl, 5% glycerol and 5 mM DTT. The cleaved protein was confirmed through mass spectrometry. The AVI-EED(76-441) was then buffer exchanged into 50 mM Bicine pH 8.3, 10 mM ATP, 10 mM magnesium acetate and 50 μM D-Biotin. 3 mg of BirA enzyme was added to the system and incubated at 4° C. for 2 hours to biotinylate the AVI-EED(76-441). The biotinylated-AVI-EED(76-441) was then buffer exchanged into 20 mM Tris pH 8.0 and 400 mM NaCl and passed through a size exclusion column of Superdex 200 16/60 Increase. The purified monomeric biotinylated-AVI-EED(76-441) was confirmed through SDS-PAGE, LC-MS and analytical size exclusion chromatography.
All surface plasmon resonance (SPR) assays were performed using a GE Biacore S200 utilizing GE Biotin CAPture chips. Capturing of CAP reagents was performed with a flow rate of 2 μL/min for 90 seconds. For protein capturing, a solution of 50 μg/mL of biotinylated AVI-tagged EED (76-441) in 10 mM HEPES pH 7.4, 150 mM NaCl, 0.05% Tween 20 and 2% DMSO (Running Buffer) was flowed over the chip with a flow rate of 5 μL/min for a contact time of 30 seconds. Final readings were 2200-2400 RU. For compounds, 7 concentrations were made with 3-dilutions using the Running Buffer for a total of 300 μL of each concentration in a 96-well microplate. During the binding experiments, a flow rate of […] was used for an association time of 90 seconds followed by a disassociation time of 180 seconds. The compartment temperature was set at 10° C. with the chip at 25° C. During regeneration the flow rate was set to 30 μL/min for 30 seconds. All fittings were done using a 1:1 binding model.

The subject of experiment [2] is human P-glycoprotein HEK cells (HEK-P-gp). Put plainly: H3K27me3 immunocytochemistry assay in P-gp expressing HEK293T cells, with or without elacridar. The settings on record: Homo sapiens, 4 days compound treatment. The class given is cell-based. The method, then: A plasmid encoding the human ABCB1 gene under the control of a CMV promoter was purchased from Origene (Cat #RC216080). The HEK293T cells were purchased from ATCC (Cat #CRL-3216) and were cultured for expansion in the recommended conditions. The HEK293T cells were transfected with 2 ug of the pCMV-ABCB1 plasmid using Lipofectamine 3000 following recommendations from the manufacturer (ThermoFisher Scientific, Cat #L3000008). After 24 h, cells were dissociated, and 5000 cells were seeded on a 10 cm tissue culture dish. On the next day, fresh media containing 5 nM Vinblastine (Sigma, Cat #V1377) was added, and media containing compound was replenished every 72 h. After surviving cells reached confluency, cells were passaged, and lines were maintained in the presence of 2.5 nM Vinblastine until further characterization.
P-gp expressing HEK293T, HUDEP2, and Human Mobilized Peripheral Blood Primary CD34+ cells were cultured for use in an H3K27me3 immunocytochemistry assay. HUDEP2 and Human Mobilized Peripheral Blood Primary CD34+ cells were cultured for use in an HbF immunocytochemistry assay. P-gp expressing HEK293T cells were maintained and passaged every 3-4 days by plating 300,000 viable cells in a T-25 culture flask containing 6 mLs of 293 Passaging Media comprised of DMEM (ThermoFisher #10566016), 10% fetal bovine serum (ThermoFisher #A3160502), 1% penicillin-streptomycin (ThermoFisher #15140122), and 2.5 nM Vinblastine (Sigma #V1377). To evaluate the inhibitory effect of the compounds of the present disclosure and their brain penetrant properties via P-gp mediated efflux, the H3K27me3 immunocytochemistry assay was conducted in the presence or absence of 250 nM of the P-gp inhibitor, elacridar. Poor brain penetrant compounds were expected to show higher potencies in the presence of Elacridar. However, brain penetrant compounds would show similar potencies irrespective of whether Elacridar is present or not. In these experiments plates without elacridar were seeded with P-gp expressing HEK293T cells at 1000 viable cells per well in a poly-d-lysine coated 384-well plate (Corning Cat #356697) in 45 μL of 293 Assay Media comprised of DMEM (ThermoFisher #10566016), 10% fetal bovine serum (ThermoFisher #A3160502), 1% penicillin-streptomycin (ThermoFisher #15140122). A replicate set of plates were seeded under the same conditions with 45 μL of 293 Assay Media supplemented with 250 nM of Elacridar to inhibit P-gp activity. Compounds were serially diluted at 10× concentration in 293 Media, and 5 μL transferred to their respective wells on both sets of plates for a total volume of 50 μL per well. The compound treated HEK293T cells were allowed to incubate for 4 days at 37° C., 85% relative humidity, and 5% CO2 before proceeding to ICC Fix and Stain protocol.
The Fix and Stain Protocol was the same for HEK293T, HUDEP2, and Primary CD34+ cell assays except the specific primary and secondary antibodies used for detection. Following 4 days of compound treatment, the respective plates were washed once with 25 μL of PBS (ThermoFisher #10010023) and fixed with 25 μL of 4% paraformaldehyde (ThermoFisher #28908) for 10 minutes at room temperature. The plates were then washed three times with 25 μL of PBS. Subsequent to that, the cells were permeabilized and blocked for 1 hour at room temperature in 25 μL of Perm/Block buffer comprised of IX PBS, 1% bovine serum albumin (ThermoFisher #A3294), 10% fetal bovine serum (ThermoFisher #A3160502), 0.3M glycine (Sigma #G7126), and 0.1% tween-20 (Sigma #P7949). This was followed by additional washing (three times) of the plates with 25 μL of 0.1% tween in PBS.
For the H3K27me3 assay, the cells were incubated overnight at 4° C. with 25 μL of H3K27me3 Primary Antibody (Cell Signaling #9733) diluted 1:200 in 0.1% tween-20 in PBS. […]

Setting [3] is: HEK293, 96 h, without elacridar, read-out: IC50, inhibitory activity on human P-glycoprotein HEK cells (HEK-P-gp).
[4] abbreviates: HEK293, with 250 nM elacridar, read-out: IC50, inhibitory activity on human P-glycoprotein HEK cells (HEK-P-gp) pretreated with elacridar.

Like-named read-outs stand apart in the source and are kept apart here.

T1 sequence (O75530 76-441 limits assumed): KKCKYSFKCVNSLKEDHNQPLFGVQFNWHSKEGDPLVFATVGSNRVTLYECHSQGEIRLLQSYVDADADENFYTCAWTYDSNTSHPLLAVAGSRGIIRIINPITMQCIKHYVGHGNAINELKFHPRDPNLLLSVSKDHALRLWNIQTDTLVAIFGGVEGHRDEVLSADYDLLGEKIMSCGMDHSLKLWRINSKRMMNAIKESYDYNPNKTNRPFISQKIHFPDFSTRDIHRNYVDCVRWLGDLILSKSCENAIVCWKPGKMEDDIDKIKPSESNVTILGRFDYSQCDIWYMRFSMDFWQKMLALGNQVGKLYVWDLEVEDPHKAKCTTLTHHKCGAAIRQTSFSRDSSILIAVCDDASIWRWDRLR

On to `COc1nc(C)ccc1-c1cc2c(n3cnnc13)NCc1c(F)ccc3c1[C@H](CO3)CO2` [Example 105], for which, in experiment [1], the Kd lay in the range of 5 to 10 nM. Besides, the IC50 in experiment [2] (setting [3]) and in experiment [2] (setting [4]) was 100 to 500 nM throughout.

With `Cc1cc(-c2cc3c(n4cnnc24)NCc2c(F)ccc4c2[C@H](CO4)CO3)cnn1` [Example 123], in experiment [1], the Kd was < 2.5 nM. Also, the IC50 in experiment [2] (setting [3]) and in experiment [2] (setting [4]) was > 500 nM each time.

As to `Cc1cncnc1-c1cc2c(n3cnnc13)NCc1c(F)ccc3c1[C@@H](CO3)CO2` [Compound 162, (S)-12-fluoro-4-(5-methylpyrimidin-4-yl)-7a,8,13,14-tetrahydro-7H-[1,2,4]triazolo[4′,3′:1,6]pyrido[3,2-b]benzofuro[4,3-fg][1,4]oxazonine], the Kd in experiment [1] lay within 2.5 to 5 nM. The figures for the IC50 in experiment [2] (setting [3]) and in experiment [2] (setting [4]) were 25 to 50 nM and 50 to 100 nM, respectively.

Take `Cc1cc(Cl)cnc1-c1cc2c(n3cnnc13)NCc1c(F)ccc3c1[C@@H](CO3)CO2` [Compound 166, (S)-4-(5-chloro-3-methylpyridin-2-yl)-12-fluoro-7a,8,13,14-tetrahydro-7H-[1,2,4]triazolo[4′,3′:1,6]pyrido[3,2-b]benzofuro[4,3-fg][1,4]oxazonine]: the Kd in experiment [1] is 2.5 to 5 nM. Also, the IC50 in experiment [2] (setting [3]) and in experiment [2] (setting [4]) was > 500 nM in each case.

`Cc1ncc(-c2cc3c(n4cnnc24)NCc2c(F)ccc4c2[C@@H](CO4)CO3)cc1N` [Compound 179, (S)-5-(12-fluoro-7a,8,13,14-tetrahydro-7H-[1,2,4]triazolo[4′,3′:1,6]pyrido[3,2-b]benzofuro[4,3-fg][1,4]oxazonin-4-yl)-2-methylpyridin-3-amine]: the Kd in experiment [1] was < 2.5 nM. The IC50 in experiment [2] (setting [3]) was > 500 nM; in experiment [2] (setting [4]), 100 to 500 nM.

Take `COc1cccnc1-c1cc2c(n3cnnc13)NCc1c(F)ccc3c1[C@@H](CO3)CO2` [Compound 159, (S)-12-fluoro-4-(3-methoxypyridin-2-yl)-7a,8,13,14-tetrahydro-7H-[1,2,4]triazolo[4′,3′:1,6]pyrido[3,2-b]benzofuro[4,3-fg][1,4]oxazonine]: the Kd in experiment [1] fell in the range of 10 to 50 nM. The IC50 in experiment [2] (setting [3]) and in experiment [2] (setting [4]) was > 500 nM each time.

As to `Fc1ccc2c3c1CNc1c(cc(-c4ccc(C(F)(F)F)cn4)c4nncn14)OCC3CO2` (stereo not drawn) [Example 113], the Kd in experiment [1] was 10 to 50 nM. Also, the IC50 in experiment [2] (setting [3]) and in experiment [2] (setting [4]) was > 500 nM each time.

As for `Fc1ccc2c3c1CNc1c(cc(-c4cnn5c4CCC5)c4nncn14)OC[C@@H]3CO2` [Compound 171, (S)-4-(5,6-dihydro-4H-pyrrolo[1,2-b]pyrazol-3-yl)-12-fluoro-7a,8,13,14-tetrahydro-7H-[1,2,4]triazolo[4',3':1,6]pyrido[3,2-b]benzofuro [4,3-fg][1,4] oxanzonine], in experiment [1], the Kd is < 2.5 nM. For the same molecule, the IC50 in experiment [2] (setting [3]) and in experiment [2] (setting [4]) was > 500 nM in each case.

As to `CCOc1ncc(-c2cc3c(n4cnnc24)NCc2c(F)ccc4c2[C@H](CO4)CO3)cn1` [Example 109], the Kd in experiment [1] was < 2.5 nM. Besides, the IC50 in experiment [2] (setting [3]) and in experiment [2] (setting [4]) was 100 to 500 nM each time.

For the molecule `Fc1ccc2c3c1CNc1c(cc(-c4cnco4)c4nncn14)OC[C@@H]3CO2` [Compound 188, (S)-12-fluoro-4-(oxazol-5-yl)-7a,8,13,14-tetrahydro-7H-[1,2,4]triazolo[4′,3′:1,6]pyrido[3,2-b]benzofuro[4,3-fg][1,4]oxazonine], in experiment [1], the Kd was < 2.5 nM. For the same molecule, the IC50 in experiment [2] (setting [3]) and in experiment [2] (setting [4]) was 100 to 500 nM each time.

`Fc1ccc2c3c1CNc1c(cc(-c4ncncc4Cl)c4nncn14)OC[C@@H]3CO2` [Compound 163, (S)-4-(5-chloropyrimidin-4-yl)-12-fluoro-7a,8,13,14-tetrahydro-7H-[1,2,4]triazolo[4′,3′:1,6]pyrido[3,2-b]benzofuro[4,3-fg][1,4]oxazonine]: the Kd in experiment [1] was < 2.5 nM. Further, the IC50 lay within 100 to 500 nM in experiment [2] (setting [3]) and 25 to 50 nM in experiment [2] (setting [4]).

With `COc1ncc(F)cc1-c1cc2c(n3cnnc13)NCc1c(F)ccc3c1[C@H](CO3)CO2` [Example 111], in experiment [1], the Kd fell in the range of 2.5 to 5 nM. Besides, the IC50 in experiment [2] (setting [3]) and in experiment [2] (setting [4]) was 100 to 500 nM throughout.

On to `Fc1ccc2c3c1CNc1c(cc(-c4cnc(C5CC5)nc4)c4nncn14)OC[C@@H]3CO2` [Compound 178, (S)-4-(2-cyclopropylpyrimidin-5-yl)-12-fluoro-7a,8,13,14-tetrahydro-7H-[1,2,4]triazolo[4′,3′:1,6]pyrido[3,2-b]benzofuro[4,3-fg][1,4]oxazonine], for which, in experiment [1], the Kd is < 2.5 nM. Moreover, the IC50 fell in the range of 100 to 500 nM in experiment [2] (setting [3]) and 50 to 100 nM in experiment [2] (setting [4]).

Take `CN1CCN(c2ccc(-c3cc4c(n5cnnc35)NCc3c(F)ccc5c3[C@H](CO5)CO4)cn2)CC1` [Example 117]: in experiment [1], the Kd is < 2.5 nM. The IC50 in experiment [2] (setting [3]) lay in the range of 100 to 500 nM; in experiment [2] (setting [4]), 50 to 100 nM.
